# Values of other authors in US20060188579A1, “Novel process” (priority 2003, published 2006).
# Details: particles produced by the method of WO00/38811; lowest value ('down to')
smiles,measurement,value
"Nc1cnc(-c2cc(Cl)cc(Cl)c2Cl)c(N)n1 [2,6-diamino-3-(2,3,5-trichlorophenyl)pyrazine]",dv(0.5),1.64 μm
